Results as given in patent US6458782B1, “Remedies for diabetes” (priority 1997, dated 2002).

Key:
[1] = tested on: adipocyte strain 3T3L-1; test: Differentiation of precursor adipocytes into adipocytes (Oil Red O staining, absorbance of extract); type: cell-based; details: culture for 13 days; for Absorbance (490 nm): Oil Red O extracted with isopropanol, Control 0.266
Experimental: (§1) Therefore, effect of the medicaments of the present invention on enhancement of differentiation of precursor adipocytes into adipocytes was examined by using an adipocyte strain 3T3L-1 (obtained from Japanese Cancer Research Resource Bank) according to the published method (Endocrinology, 137, 4706, 1996). The cells were cultured in a culture dish having a diameter of 6 cm as a monolayer, and added with HX600, HX-620, HX-630, or HX-640 when the cells reached a density at which the cells began to contact with one another. After the culture for 13 days, lipid droplets in the cells were stained with Oil Red O. The dye was extracted with 1.0 ml of isopropanol (a modified method described in Methods in Enzymology, 32, 192), and absorbance (490 nm) of the extract was measured and used as index of differentiation into adipocytes.

[2] = tested on: adipocyte strain 3T3L1; test: Enhancement of the differentiation of precursor adipocytes into adipocytes induced by a thiazoline compound (troglitazone); type: cell-based; details: for Absorbance (490 nm): single compound 10^−7 M, culture 10 days, Control 0.086
Description: The culture was continued for 10 days.

[3] = tested on: diabetic mice (C57BL/6J-Lepob); test: Hypoglycemic action in diabetes model mice (blood glucose and acylglycerol level); type: in vivo; details: for Blood acylglyerol level, percentage based on the control group / Blood glucose level, percentage based on the control group / Blood acylglyerol level / Blood glucose level: 6th day; for Blood acylglyerol level: Control 132 ± 14; for Blood glucose level: Control 428 ± 82
Experimental: Experiments were performed by using diabetic mice hereditarily have pathological conditions of fatness, hyperglycemia, and hyperlipidemia (C57BL/6J-Lepob, female, Jackson Laboratory, 10-week old) according to the method described in the literature (Diabetologia, 14, 141, 1978). Blood samples were collected one day before the start of the administration, and the mice were divided into three groups (one group consisted of 4 or 5 mice). One group was used as a medication group, and each mouse of the group was orally administered with HX-600 suspended in 0.1% carboxymethylcellulose as microparticules (30 mg/kg/day or 100 mg/kg/day) every day for 6 days. Mice of the control group were orally administered with only 0.1% carboxymethylcellulose. On the 6th day after the start of the administration, blood samples were collected from ophthalmic fundus veins.
Blood glucose level was measured by the glucose oxidase method (Fuji Drychem Slide GLU-P), and acylglycerol level was measured by the glycerol phosphate dehydrogenase method (Fuji Drychem Slide TG-P). As a measurement apparatus, Fuji Drychem 5000 was used. […] Percentages based on the control group are also indicated.

[4] = tested on: adipocyte strain 3T3L-1; test: Enhancement of the differentiation of precursor adipocytes into adipocytes induced by insulin; type: cell-based; details: for Absorbance (490 nm): culture 9 days, Not added 0.072
Experimental: as §1
Synergistic effect of insulin used for therapeutic treatment of diabetes and the medicament of the present invention was examined. Cells of the adipocyte strain 3T3L-1 were cultured in a culture dish having a diameter of 3.5 cm as a monolayer, and added with 10 μg/ml of insulin and HX-600 (10^−6 M or 10^−8 M) when the cells reached a density at which the cells began to contact with one another. The culture was continued for 9 days.

[5] = 30 mg/kg/day and 100 mg/kg/day, 6th day of the administration

| Compound | Absorbance (490 nm) ([1]; 10^−6 M) | Absorbance (490 nm) ([1]; 10^−7 M) | Absorbance (490 nm) ([1]; 10^−8 M) | differentiation of precursor adipocyte 3T3L-1 into adipocytes (in words) [1] | Absorbance (490 nm) [2] | other results |
| --- | --- | --- | --- | --- | --- | --- |
| 4-[2,3-(2,5-dimethyl-2,5-hexano)dibenzo[b,e]azepin-11-yl]benzoic acid [HX-640] | 0.825 | 0.694 | 0.365 | strongly promoted |  |  |
| Cc1c(C)c2c(c(C)c1O)CCC(C)(COc1ccc(CC3SC(=O)NC3=O)cc1)O2 (stereo not drawn) [CS-045, troglitazone, reference compound] |  |  |  |  | 0.171 |  |
| CN1c2ccccc2N=C(c2ccc(C(=O)O)cc2)c2cc3c(cc21)C(C)(C)CCC3(C)C [HX-600, 4-[5H-2,3-(2,5-dimethyl-2,5-hexano)-5-methyldibenzo [b,e][1,4]diazepin-11-yl]benzoic acid] | 0.690 | 0.445 | 0.274 | strongly promoted | 0.131 | action of inducing differentiation into adipocytes by CS-045 (in words) ([2]; HX600 10^−7 M with CS-045 10^−7 M, 10 days): synergistically promoted; acylglycerol level versus the control group (in words) [3, 5]: remarkably lower; blood glucose level versus the control group (in words) [3, 5]: remarkably lower; Blood acylglyerol level, percentage based on the control group ([3]; 30 mg/kg/day oral for 6 days): 79.5%; Blood glucose level, percentage based on the control group ([3]; 30 mg/kg/day oral for 6 days): 60.3%; Blood acylglyerol level ([3]; 30 mg/kg/day oral for 6 days): 105 ± 14 mg/dL; Blood glucose level ([3]; 30 mg/kg/day oral for 6 days): 258 ± 56 mg/dL; Blood acylglyerol level, percentage based on the control group ([3]; 100 mg/kg/day oral for 6 days): 72.7%; Blood glucose level, percentage based on the control group ([3]; 100 mg/kg/day oral for 6 days): 55.6%; Blood acylglyerol level ([3]; 100 mg/kg/day oral for 6 days): 96 ± 11 mg/dL; Blood glucose level ([3]; 100 mg/kg/day oral for 6 days): 238 ± 59 mg/dL; Absorbance (490 nm) ([4]; HX-600 10^−6 M alone): 0.287; differentiation into adipocytes induced by the action of insulin (in words) ([4]; HX-600 10^−6 M and 10^−8 M with insulin 10 μg/ml, 9 days): synergistically promoted; Absorbance (490 nm) ([4]; HX-600 10^−8 M alone): 0.118 |
| CC1(C)CCC(C)(C)c2cc3c(cc21)Oc1ccccc1N=C3c1ccc(C(=O)O)cc1 [HX-620, 4-[2,3-(2,5-dimethyl-2,5-hexano)dibenzo[b,f][1,4]oxazepin-11-yl]benzoic acid] | 0.543 | 0.308 | 0.225 | strongly promoted |  |  |
| CC1(C)CCC(C)(C)c2cc3c(cc21)Sc1ccccc1N=C3c1ccc(C(=O)O)cc1 [HX-630, 4-[2,3-(2,5-dimethyl-2,5-hexano)dibenzo[b,f][1,4]thiazepin-11-yl]benzoic acid] | 0.745 | 0.471 | 0.298 | strongly promoted |  |  |
| insulin |  |  |  |  |  | Absorbance (490 nm) ([4]; insulin 10 μg/ml alone): 0.301 |
